The term IC50 denotes the concentration that inhibits the measured activity by half.

These results are taken from publication PMC8362065, “Easily Available, Amphiphilic Diiron Cyclopentadienyl Complexes Exhibit in Vitro Anticancer Activity in 2D and 3D Human Cancer Cells through Redox Modulation Triggered by CO Release” (Chemistry (Weinheim an Der Bergstrasse, Germany), 2021).

Read-outs that look alike come from different tables or passages of the source. Marks after values point to notes of the source that are not given here.

In data set [1] the target is T1, Lysozyme from chicken egg white (Gallus gallus, UniProt P00698).
T1 construct: Lysozyme from chicken egg white (M=14 300 Da, 62971 Sigma‐Aldrich); purchased Sigma-Aldrich 62971; host or cells: chicken egg white (natural source)
The experiment in a line: Reactivity with model protein lysozyme, ESI-MS. Conditions: 37 °C; for Reaction with lysozyme: compound/lysozyme 2 : 1, 24 h; for % Lysozyme methylation (alkylation): lysozyme:compound 1 : 2 molar ratio, 24 h, flow injection ESI-MS peak integrals. The method, then: To gain insights into the reactivity of the diiron compounds with possible biomolecular targets, we selected lysozyme, a small model protein often used to test interactions with metal compounds.[36] Following 24 h incubation at 37 °C, diiron compounds/lysozyme solutions (2 : 1 molar ratio) in ammonium acetate were filtered and analysed by ESI‐MS. In all cases, the original organometallic cation was identified as the major Fe‐containing compound in solution (Figures S33‐S40). Concerning the protein scaffold, the only identified adduct from the interaction with [2–3]^+ was the methylated derivative, which was also checked by HPLC separation (Figure S41). The expected diiron counterparts, that is, 1A–H, could not be detected possibly due to their water insolubility. The [lysozyme+Me^+] to [lysozyme] ratios, calculated on extracted ion chromatograms after protein peak reconstruction, are reported in Table 4. […] Methylation is a common post‐translational modification of protein/enzymes (methyltransferase enzymes) but it has also been observed as a result of the interaction of proteins with various electrophiles.[37]
Lysozyme from chicken egg white (M=14 300 Da, 62971 Sigma‐Aldrich) was stored at 4 °C as received. A stock solution was prepared by dissolving the powder protein (125 μM) and NH4OAc (1.25×10^−2 M)[56] in HPLC water and was immediately used. Stock solutions of diiron complexes (c Fe2 =1×10^−3 M) were prepared by dissolving the selected compound in DMSO (0.25 mL) or MeOH (0.7 mL; used only for [4G]BF4), then diluting with HPLC water up to 5.0 mL total volume. Next, aliquots of the Fe (0.50 mL) and lysozyme (2.0 mL) stock solutions were mixed and the final solution (Fe2 200 μM, lysozyme 100 μM, NH4OAc 10 mM; 1 % DMSO) was kept at 37 °C for 24 h. The resulting suspensions were centrifuged (RCF 805, 5 min; Hettich EBA 8G) to separate the orange‐brown precipitate. A blank solution (lysozyme only) was prepared and treated by the same procedure. Next, samples were diluted 1 : 20 (v/v) with a water/MeCN (1 : 1, v/v) solution containing 1 % formic acid and analysed by HPLC‐MS and flow injection MS. For HPLC analyses, elution was conducted with a MeCN/water linear gradient (90 : 10 to 5 : 95 v/v over 60 min), containing 0.05 % trifluoroacetic acid. The following compounds were identified by their MS pattern: [2A]^+ (t R=18.0 min), [2B]^+ (t R=13.8 min), [2C]^+ (t R=18.8 min), [2D]^+ (t R=17.0 min), [2E]^+ (t R=18.3 min), [2F]^+ (t R=9.7 min), [3F]^+ (t R=13.1 min), [4G]^+ (t R=23.0 min), [5H]^+ (t R=24.3 min), lysozyme‐CH3 (t R=21.0 min), lysozyme (t R=21.6 min). In all cases, the starting organometallic cation was identified as the major Fe‐containing compound in solution. Protein peaks pattern were obtained following peak reconstruction. Peak integrals for lysozyme and methyl lysozyme were calculated from the extracted ion chromatograms from the flow injection MS analysis (Table 4).

The test system of data set [2] is Human breast (MCF‐7) carcinoma cell line. The experiment in a line: MTT assay, 2D cell culture. The format is cell-based. Particulars: MCF‐7 cells, 72 h. The procedure: (§1) Compounds [2B]BF4, [2C]CF3SO3, [2D]CF3SO3 and [3F]CF3SO3 were dissolved in water while the other compounds were dissolved in the minimum DMSO amount prior to cell culture testing. A calculated amount of the stock drug DMSO solution was added to the cell culture media to reach a final maximum DMSO concentration of 0.5 %, which had no effects on cell viability.
(§2) Cell cultures. Human colon (HCT‐15), pancreatic (PSN‐1) and breast (MCF‐7) carcinoma cell lines along with human melanoma cells (A375) were obtained from American Type Culture Collection (ATCC, Rockville, MD). Embryonic kidney HEK293 cells were obtained from the European Collection of Cell Cultures (ECACC, Salisbury, UK). Human ovarian 2008 cancer cells were kindly provided by Prof. G. Marverti (Dept. of Biomedical Science of Modena University, Italy). MCF‐7 ADR cells were kindly provided by Prof. N. Colabufo (Dept. Pharmacy, University of Bari, Italy). Cell lines were maintained in the logarithmic phase at 37 °C in a 5 % CO2 atmosphere using the following culture media containing 10 % fetal calf serum (Euroclone, Milan, Italy), antibiotics (50 units/mL penicillin and 50 μg/mL streptomycin) and 2 mM L‐glutamine: i) RPMI‐1640 medium (Euroclone, Milan, Italy) for PSN‐1, 2008, HCT‐15, MCF‐7 and MCF‐7 ADR cells; ii) DMEM for A375 and HEK293 cells.
(§3) MTT assay. The growth inhibitory effect towards tumour cells was evaluated by means of MTT assay as previously described.[57] Briefly, 3–8×10^3 cells/well, dependent upon the growth characteristics of the cell line, were seeded in 96‐well microplates in growth medium (100 μL). After 24 h, the medium was removed and replaced with a fresh one containing the compound to be studied at the appropriate concentration. Triplicate cultures were established for each treatment. After 24 or 72 h, each well was treated with 10 μL of a 5 mg/mL MTT saline solution, and following 5 h of incubation, 100 μL of a sodium dodecyl sulfate (SDS) solution in HCl 0.01 M were added. After an overnight incubation, cell growth inhibition was detected by measuring the absorbance of each well at 570 nm using a Bio‐Rad 680 microplate reader. Mean absorbance for each drug dose was expressed as a percentage of the control untreated well absorbance and plotted against drug concentration. IC50 values, the drug concentrations that reduce the mean absorbance at 570 nm to 50 % of those in the untreated control wells, were calculated by the four‐parameter logistic (4‐PL) model. Evaluation was based on means from at least four independent experiments.
(In general: Formazan colour is commonly taken as a measure of viable cells.)

Data set [3] relates to Human colon (HCT‐15) carcinoma cell line. The experiment in a line: MTT assay, 2D cell culture. The data set is classed as cell-based. Conditions: HCT‐15 cells, 72 h. The method, then:
as §1, §2, §3

Data set [4] deals with Human ovarian 2008 cancer cells. The experiment in a line: MTT assay, 2D cell culture. The format is cell-based. Particulars: 2008 cells, 72 h. The method, then:
as §1, §2, §3

The subject of data set [5] is Human pancreatic (PSN‐1) carcinoma cell line. The experiment in a line: MTT assay, 2D cell culture. The format is cell-based. The method, then: as §1, §2, §3
Data set [6] concerns human melanoma cells (A375). The experiment in a line: MTT assay, 2D cell culture. The format is cell-based. Conditions: 72 h. The method, then: as §1, §2, §3
Data set [7] deals with MCF‐7 ADR cells. The experiment in a line: MTT assay, multidrug-resistant cancer cell model overexpressing P-gp. The format is cell-based, human. Particulars: for IC50: MCF‐7 ADR cells, 72 h, MTT; for RF=IC50 (resistant cells)/IC50 (wild‐type cells): MCF‐7 ADR vs MCF‐7, 72 h. The procedure:
The antiproliferative activity was also investigated in a multidrug‐resistant cancer cell model overexpressing P‐gp (MCF‐7 ADR cells).
as §1, §2, §3

The nature of data set [8]: Solubility pattern of the isolated compound (qualitative). The format is physicochemical. Particulars: isolated solid.
The mark [9] stands for this setting: PSN-1 cells, 24 h, read-out: IC50 (µM) ± SD.
Where [10] appears, read: PSN‐1 cells, 72 h, read-out: IC50 (μM)±SD.

T1 sequence (P00698 19-147): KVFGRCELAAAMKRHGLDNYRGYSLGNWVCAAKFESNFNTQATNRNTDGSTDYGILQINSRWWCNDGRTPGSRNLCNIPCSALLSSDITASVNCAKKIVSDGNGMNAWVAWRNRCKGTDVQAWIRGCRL

For the substance “[Fe2Cp2(CO)2(μ‐CO){μ‐CNEt(2‐naphthyl)}]BF4 [[4G]BF4]”, the Reaction with lysozyme result in data set [1] is on record as “did not react with lysozyme”. Also, the “% Lysozyme methylation (alkylation)” value in data set [1] amounted to 0 %^[b]. The IC50 stood at 21.4 ± 3.6 µM in data set [2]; 22.9 ± 5.8 µM in data set [3]; 38.8 ± 6.9 µM in data set [4]; 69.5 ± 2.1 µM in data set [5] (setting [9]); 25.6 ± 4.5 µM in data set [5] (setting [10]); 26.2 ± 5.6 µM in data set [6]. This substance gave an IC50 in data set [7] of 26.9 ± 5.1 µM. The “RF=IC50 (resistant cells)/IC50 (wild‐type cells)” value (from here on “RF=IC50 (resistant cells)/IC50”) in data set [7] is given as 1.3. Moreover, the “Solubility in water (qualitative)” value in data set [8] was “insoluble”.
With “[Fe2Cp2(CO)2(μ‐CO){μ‐CNBn2}]X [[5H]CF3SO3]”, the Reaction with lysozyme entry in data set [1] is listed as “did not react with lysozyme”. Moreover, the “% Lysozyme methylation (alkylation)” value in data set [1] stood at 0 %^[b]. The IC50 in data set [2] is 36.2 ± 6.1 µM; in data set [3], 32.5 ± 4.8 µM; in data set [4], 37.4 ± 5.2 µM; in data set [5] (setting [9]) it was 112 ± 2.4 µM; in data set [5] (setting [10]), 33.7 ± 4.2 µM; in data set [6], 30.8 ± 5.1 µM. In addition, half-maximal inhibition in data set [7] (IC50) required 44.7 ± 6.1 µM. For the same substance, the “RF=IC50 (resistant cells)/IC50” value in data set [7] is recorded as 1.2. Besides, the “Solubility in water (qualitative)” value in data set [8] was “poorly soluble”.
Consider “[Fe2Cp2(CO)2(μ‐CO){μ‐CNMe(1H‐indol‐6‐yl)}]CF3SO3 [[2A]CF3SO3]”, for which the “% Lysozyme methylation (alkylation)” value in data set [1] came out at 45%. Also, the IC50 worked out at 63.2 ± 5.5 µM in data set [2]; 69.5 ± 6.7 µM in data set [3]; 55.5 ± 4.8 µM in data set [4]; 144 ± 16 µM in data set [5] (setting [9]); 54.3 ± 6.2 µM in data set [5] (setting [10]); 50.8 ± 6.1 µM in data set [6]. Moreover, in data set [7], the IC50 turned out to be 84.5 ± 8.5 µM. In addition, the “RF=IC50 (resistant cells)/IC50” value in data set [7] is given as 1.3. Also, the “Solubility in water (qualitative)” value in data set [8] is on record as “insoluble”.
As for “[Fe2Cp2(CO)2(μ‐CO){μ‐CNMe(4‐C6H4OMe)}]CF3SO3 [[2D]CF3SO3]”, the “% Lysozyme methylation (alkylation)” value in data set [1] came out at 31%. Besides, the IC50 in data set [2] was 14.3 ± 2.6 µM; in data set [3], 15.6 ± 3.5 µM; in data set [4], 21.3 ± 3.1 µM; in data set [5] (setting [9]), 35 ± 2 µM; in data set [5] (setting [10]), 16.2 ± 2.9 µM; in data set [6], 15.5 ± 2.6 µM. Moreover, in data set [7], the midpoint of inhibition, the IC50, lay at 22.6 ± 4.2 µM. For the same substance, the “RF=IC50 (resistant cells)/IC50” value in data set [7] amounted to 1.6. Also, the “Solubility in water (qualitative)” value in data set [8] is recorded as “soluble”.
Regarding “[Fe2Cp2(CO)2(μ‐CO){μ‐CNMe(CH2CHCH2)}]X [[3F]CF3SO3]”, the “% Lysozyme methylation (alkylation)” value in data set [1] came to 47%. The IC50 is over 100 µM in data set [2]; over 100 µM in data set [3]; over 100 µM in data set [4]; over 200 µM in data set [5] (setting [9]); over 100 µM in data set [5] (setting [10]); over 100 µM in data set [6]. Moreover, the IC50 in data set [7] is over 100 µM. For the same substance, the “Solubility in water (qualitative)” value in data set [8] is listed as “soluble”.
On to “[Fe2Cp2(CO)2(μ‐CO){μ‐CNMe(C6H11)}]X [[2C]CF3SO3]”, for which, in data set [1], the “% Lysozyme methylation (alkylation)” value stood at 50%. Also, the IC50 was 17.3 ± 3.3 µM in data set [2]; 9.2 ± 1.8 µM in data set [3]; 28.4 ± 5.4 µM in data set [4]; 94.2 ± 3.8 µM in data set [5] (setting [9]); 15.3 ± 2.7 µM in data set [5] (setting [10]); 16.8 ± 2.1 µM in data set [6]. This substance also showed an IC50 in data set [7] of 23.3 ± 4.1 µM. Moreover, in data set [7], the “RF=IC50 (resistant cells)/IC50” value is listed as 1.3. Moreover, the “Solubility in water (qualitative)” value in data set [8] is “less soluble”.
“[Fe2Cp2(CO)2(μ‐CO){μ‐CNMe(CH2PO3Et2)}]X [[2B]BF4]”: in data set [1], the “% Lysozyme methylation (alkylation)” value is listed as 49%. For the same substance, the IC50 in data set [2] is over 100 µM; in data set [3], over 100 µM; in data set [4] it was over 100 µM; in data set [5] (setting [9]), over 200 µM; in data set [5] (setting [10]), over 100 µM; in data set [6] it was over 100 µM. The same substance returned an IC50 in data set [7] of over 100 µM. Further, the “Solubility in water (qualitative)” value in data set [8] is “soluble”.
